PMC4303209, “A novel phosphatidylinositol 3-kinase (PI3K) inhibitor directs a potent FOXO-dependent, p53-independent cell cycle arrest phenotype characterized by the differential induction of a subset of FOXO-regulated genes” (Breast Cancer Research : BCR, 2014)

Tested on: MCF-7 breast cancer cells
Assay: Microarray gene expression analysis (Agilent whole human genome 4 x 44K; compound vs DMSO, LIMMA log2 fold change)
Assay type: cell-based
Settings: Apoptosis genes

## Oc1cccc(-c2nc(N3CCOCC3)c3oc4ncccc4c3n2)c1 [PI-103]
Gene 1495
  CTNNA1 log2FC: 0.421
Gene 1499
  CTNNB1 log2FC: 0.098
Gene 1508
  CTSB log2FC: 0.047
Gene 1512
  CTSH log2FC: -0.000676
Gene 1514
  CTSL log2FC: 0.329
Gene 1524
  CX3CR1 log2FC: 0.187
Gene 1540
  CYLD log2FC: 0.377
Gene 1601
  DAB2 log2FC: -0.118
Gene 1603
  DAD1 log2FC: -0.506
Gene 1611
  DAP log2FC: -0.163
Gene 1612
  DAPK1 log2FC: 0.477
Gene 1613
  DAPK3 log2FC: -0.075
Gene 1621
  DBH log2FC: -0.084
Gene 1630
  DCC log2FC: -0.032
Gene 1647
  GADD45A log2FC: -0.795
Gene 1649
  DDIT3 log2FC: 2.078
Gene 1654
  DDX3X log2FC: -1.134
Gene 1655
  DDX5 log2FC: -1.225
Gene 1676
  DFFA log2FC: -0.256
Gene 1687
  DFNA5 log2FC: -0.030
Gene 1718
  DHCR24 log2FC: -0.730
Gene 1723
  DHODH log2FC: -0.198
Gene 1728
  NQO1 log2FC: -0.052
Gene 1745
  DLX1 log2FC: -0.636
Gene 1773
  DNASE1 log2FC: 0.269
Gene 1776
  DNASE1L3 log2FC: -0.152
Gene 1777
  DNASE2 log2FC: 0.667
Gene 1793
  DOCK1 log2FC: 0.305
Gene 1800
  DPEP1 log2FC: 0.033
Gene 1822
  ATN1 log2FC: -0.173
Gene 1828
  DSG1 log2FC: -0.439
Gene 1829
  DSG2 log2FC: 0.213
Gene 1830
  DSG3 log2FC: -0.053
Gene 1831
  TSC22D3 log2FC: 0.499
Gene 1832
  DSP log2FC: 0.622
Gene 1843
  DUSP1 log2FC: -0.801
Gene 1844
  DUSP2 log2FC: -2.156
Gene 1848
  DUSP6 log2FC: -1.955
Gene 1869
  E2F1 log2FC: -0.119
Gene 1870
  E2F2 log2FC: -0.377
Gene 1894
  ECT2 log2FC: 0.836
Gene 1906
  EDN1 log2FC: 0.126
Gene 1909
  EDNRA log2FC: 0.064
Gene 1910
  EDNRB log2FC: -0.042
Gene 1917
  EEF1A2 log2FC: 0.203
Gene 1946
  EFNA5 log2FC: -0.125
Gene 1956
  EGFR log2FC: 0.479
Gene 1958
  EGR1 log2FC: -2.608
Gene 1959
  EGR2 log2FC: -0.367
Gene 1969
  EPHA2 log2FC: -1.806
Gene 1984
  EIF5A log2FC: -0.261
Gene 2021
  ENDOG log2FC: -0.245
Gene 2033
  EP300 log2FC: -0.124
Gene 2045
  EPHA7 log2FC: -0.025
Gene 2055
  CLN8 log2FC: -0.236
Gene 2056
  EPO log2FC: -0.136
Gene 2065
  ERBB3 log2FC: 0.809
Gene 2066
  ERBB4 log2FC: 0.106
Gene 2068
  ERCC2 log2FC: -0.269
Gene 2071
  ERCC3 log2FC: -0.108
Gene 2073
  ERCC5 log2FC: 0.823
Gene 2074
  ERCC6 log2FC: 0.488
Gene 2081
  ERN1 log2FC: -0.108
Gene 2099
  ESR1 log2FC: -0.048
Gene 2100
  ESR2 log2FC: -0.062
Gene 2113
  ETS1 log2FC: -0.820
Gene 2139
  EYA2 log2FC: -0.257
Gene 2149
  F2R log2FC: 0.377
Gene 2152
  F3 log2FC: -0.177
Gene 2185
  PTK2B log2FC: 0.175
Gene 2207
  FCER1G log2FC: -0.541
Gene 2245
  FGD1 log2FC: -0.255
Gene 2249
  FGF4 log2FC: 0.019
Gene 2253
  FGF8 log2FC: -0.135
Gene 2255
  FGF10 log2FC: -0.00185
Gene 2260
  FGFR1 log2FC: -0.374
Gene 2261
  FGFR3 log2FC: -0.164
Gene 2263
  FGFR2 log2FC: 1.806
Gene 2272
  FHIT log2FC: -0.336
Gene 2274
  FHL2 log2FC: -0.078
Gene 2296
  FOXC1 log2FC: -0.767
Gene 2303
  FOXC2 log2FC: -0.284
Gene 2322
  FLT3 log2FC: 0.120
Gene 2324
  FLT4 log2FC: -0.157
Gene 2339
  FNTA log2FC: 0.629
Gene 2395
  FXN log2FC: -0.514
Gene 2487
  FRZB log2FC: 0.040
Gene 2534
  FYN log2FC: 0.082
Gene 2539
  G6PD log2FC: -0.156
Gene 2558
  GABRA5 log2FC: -0.0016
Gene 2561
  GABRB2 log2FC: -0.080
Gene 2562
  GABRB3 log2FC: -0.025
Gene 2619
  GAS1 log2FC: 0.756
Gene 2620
  GAS2 log2FC: 0.149
Gene 2623
  GATA1 log2FC: -0.018
Gene 2625
  GATA3 log2FC: -0.114
Gene 2668
  GDNF log2FC: -0.175
Gene 2683
  B4GALT1 log2FC: 0.192
Gene 2697
  GJA1 log2FC: -0.613
Gene 2729
  GCLC log2FC: 0.812
Gene 2737
  GLI3 log2FC: 0.540
Gene 2739
  GLO1 log2FC: -0.070
Gene 2765
  GML log2FC: -0.071
Gene 2782
  GNB1 log2FC: -0.085
Gene 2792
  GNGT1 log2FC: -0.037
Gene 2796
  GNRH1 log2FC: 0.097
Gene 2810
  SFN log2FC: -1.150
Gene 2822
  GPLD1 log2FC: -0.157
Gene 2833
  CXCR3 log2FC: -0.474
Gene 2869
  GRK5 log2FC: -0.059
Gene 2872
  MKNK2 log2FC: -0.826
Gene 2876
  GPX1 log2FC: 0.431
Gene 2895
  GRID2 log2FC: -0.052
Gene 2898
  GRIK2 log2FC: 0.091
Gene 2901
  GRIK5 log2FC: -0.101
Gene 2902
  GRIN1 log2FC: -0.444
Gene 2903
  GRIN2A log2FC: -0.041
Gene 2908
  NR3C1 log2FC: 1.042
Gene 2914
  GRM4 log2FC: -0.029
Gene 2923
  PDIA3 log2FC: -0.085
Gene 2931
  GSK3A log2FC: -0.030
Gene 2932
  GSK3B log2FC: -0.455
Gene 2934
  GSN log2FC: 0.174
Gene 2950
  GSTP1 log2FC: 0.117
Gene 2956
  MSH6 log2FC: -0.075
Gene 2999
  GZMH log2FC: -0.148
Gene 3001
  GZMA log2FC: -0.034
Gene 3002
  GZMB log2FC: -0.002
Gene 3004
  GZMM log2FC: -0.381
Gene 3005
  H1F0 log2FC: 0.834
Gene 3055
  HCK log2FC: -0.033
Gene 3065
  HDAC1 log2FC: -0.547
Gene 3066
  HDAC2 log2FC: 0.060
Gene 3070
  HELLS log2FC: 0.140
Gene 3071
  NCKAP1L log2FC: 0.054
Gene 3082
  HGF log2FC: -0.198
Gene 3084
  NRG1 log2FC: -1.164
Gene 3090
  HIC1 log2FC: -0.122
Gene 3091
  HIF1A log2FC: 0.019
Gene 3092
  HIP1 log2FC: -0.167
Gene 3094
  HINT1 log2FC: 0.210
Gene 3099
  HK2 log2FC: -1.428
Gene 3146
  HMGB1 log2FC: 0.343
Gene 3148
  HMGB2 log2FC: 1.070
Gene 3156
  HMGCR log2FC: 0.051
Gene 3162
  HMOX1 log2FC: 1.050
Gene 3164
  NR4A1 log2FC: -0.484
Gene 3202
  HOXA5 log2FC: 0.436
Gene 3209
  HOXA13 log2FC: 0.042
Gene 3265
  HRAS log2FC: -0.758
Gene 3273
  HRG log2FC: -0.015
Gene 3275
  PRMT2 log2FC: 0.289
Gene 3303
  HSPA1A log2FC: -2.361
Gene 3309
  HSPA5 log2FC: -0.793
Gene 3315
  HSPB1 log2FC: -0.135
Gene 3320
  HSP90AA1 log2FC: 0.717
Gene 3326
  HSP90AB1 log2FC: -0.430
